According to ChEMBL document CHEMBL1649509, “Lon protease is essential for paradoxical survival of Escherichia coli exposed to high concentrations of quinolone” (Antimicrob Agents Chemother, 2009):
Active and inactive are the calls of the source. No cut-off for these calls is given here.

Tests used:
Format in all cases: functional, organism-based
[1] = tested on: Escherichia coli; experiment: Antibacterial activity against Escherichia coli K-12 harboring lon sulA double mutant gene
[2] = tested on: Escherichia coli; experiment: Antibacterial activity against lon-deficient Escherichia coli KD2372 by viscometric assay
[3] = tested on: Escherichia coli; experiment: Antibacterial activity against lon-deficient Escherichia coli KD2372
[4] = tested on: Escherichia coli; experiment: Antibacterial activity against Escherichia coli K-12 by viscometric assay
[5] = tested on: Escherichia coli; experiment: Antibacterial activity against Escherichia coli K-12 harboring lon lexA3 mutant gene
[6] = tested on: Escherichia coli; experiment: Antibacterial activity against Escherichia coli K-12 harboring gyrA67/gyrB225 mutant gene

## CCn1cc(C(=O)O)c(=O)c2ccc(C)nc21
[1]
  Activity: Active
[2]
  Activity: Active
[3]
  Activity: Active
[4]
  Activity: inactive
[5]
  Activity: Active
[6]
  Activity: Active
